Source: ChEMBL document CHEMBL3879901, “Substituted isoquinolin-1(2H)-ones, and methods of use thereof” (2012)

Key:
[1] = target: PI3-kinase p110-delta/p85-alpha (Homo sapiens, UniProt O00329); assay: Inhibition of N-terminal His6-tagged recombinant full-length human p110delta/untagged recombinant full length p85alpha expressed in baculovirus infected Sf21 cells using phosphatidylinositol as substrate in presence of gamma-32P-ATP after 5 mins by thin layer chromatographic method
[2] = target: Phosphatidylinositol 4,5-bisphosphate 3-kinase catalytic subunit gamma isoform (Homo sapiens, UniProt P48736); assay: Inhibition of recombinant human C-terminal His6-tagged p110gamma expressed in insect cells using phosphatidylinositol as substrate in presence of gamma-32P-ATP after 5 mins by thin layer chromatographic method
Chain of Phosphatidylinositol 4,5-bisphosphate 3-kinase catalytic subunit gamma isoform (P48736 whole entry, canonical isoform): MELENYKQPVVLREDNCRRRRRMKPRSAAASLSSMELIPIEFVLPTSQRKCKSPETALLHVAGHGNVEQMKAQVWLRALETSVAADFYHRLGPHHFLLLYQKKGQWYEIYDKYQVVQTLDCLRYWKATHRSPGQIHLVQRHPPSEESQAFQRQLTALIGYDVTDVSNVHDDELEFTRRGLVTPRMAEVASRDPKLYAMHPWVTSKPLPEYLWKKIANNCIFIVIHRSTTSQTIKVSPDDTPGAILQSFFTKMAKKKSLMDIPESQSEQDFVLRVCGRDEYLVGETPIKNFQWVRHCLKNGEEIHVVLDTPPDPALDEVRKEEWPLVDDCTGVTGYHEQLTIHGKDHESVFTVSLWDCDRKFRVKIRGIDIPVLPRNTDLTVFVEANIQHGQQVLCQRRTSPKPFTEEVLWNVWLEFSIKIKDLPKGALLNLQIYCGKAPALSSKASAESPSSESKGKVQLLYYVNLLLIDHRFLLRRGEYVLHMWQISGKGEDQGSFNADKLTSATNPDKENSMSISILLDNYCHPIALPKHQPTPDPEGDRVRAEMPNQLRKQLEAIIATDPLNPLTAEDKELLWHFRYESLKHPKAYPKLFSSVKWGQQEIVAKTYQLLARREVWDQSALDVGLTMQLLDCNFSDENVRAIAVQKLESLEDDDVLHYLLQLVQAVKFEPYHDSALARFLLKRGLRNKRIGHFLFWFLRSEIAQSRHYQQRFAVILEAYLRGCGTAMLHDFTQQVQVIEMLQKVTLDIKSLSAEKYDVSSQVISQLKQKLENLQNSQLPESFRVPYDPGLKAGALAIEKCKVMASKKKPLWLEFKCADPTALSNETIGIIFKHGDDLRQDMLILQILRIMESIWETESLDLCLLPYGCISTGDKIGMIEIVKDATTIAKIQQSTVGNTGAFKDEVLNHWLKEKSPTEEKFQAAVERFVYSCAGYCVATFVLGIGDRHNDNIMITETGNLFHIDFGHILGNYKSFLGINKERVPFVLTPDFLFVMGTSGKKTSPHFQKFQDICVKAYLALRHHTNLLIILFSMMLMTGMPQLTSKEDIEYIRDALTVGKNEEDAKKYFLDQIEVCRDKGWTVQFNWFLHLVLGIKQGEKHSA

[3] = target: PI3K p110 beta/p85 alpha (Homo sapiens, UniProt P42338); assay: Inhibition of N-terminal His6-tagged recombinant full-length human p110beta/untagged recombinant full length p85alpha expressed in baculovirus infected Sf21 cells using phosphatidylinositol as substrate in presence of gamma-32P-ATP after 5 mins by thin layer chromatographic method
Chain of PI3K p110 beta/p85 alpha (P27986 whole entry): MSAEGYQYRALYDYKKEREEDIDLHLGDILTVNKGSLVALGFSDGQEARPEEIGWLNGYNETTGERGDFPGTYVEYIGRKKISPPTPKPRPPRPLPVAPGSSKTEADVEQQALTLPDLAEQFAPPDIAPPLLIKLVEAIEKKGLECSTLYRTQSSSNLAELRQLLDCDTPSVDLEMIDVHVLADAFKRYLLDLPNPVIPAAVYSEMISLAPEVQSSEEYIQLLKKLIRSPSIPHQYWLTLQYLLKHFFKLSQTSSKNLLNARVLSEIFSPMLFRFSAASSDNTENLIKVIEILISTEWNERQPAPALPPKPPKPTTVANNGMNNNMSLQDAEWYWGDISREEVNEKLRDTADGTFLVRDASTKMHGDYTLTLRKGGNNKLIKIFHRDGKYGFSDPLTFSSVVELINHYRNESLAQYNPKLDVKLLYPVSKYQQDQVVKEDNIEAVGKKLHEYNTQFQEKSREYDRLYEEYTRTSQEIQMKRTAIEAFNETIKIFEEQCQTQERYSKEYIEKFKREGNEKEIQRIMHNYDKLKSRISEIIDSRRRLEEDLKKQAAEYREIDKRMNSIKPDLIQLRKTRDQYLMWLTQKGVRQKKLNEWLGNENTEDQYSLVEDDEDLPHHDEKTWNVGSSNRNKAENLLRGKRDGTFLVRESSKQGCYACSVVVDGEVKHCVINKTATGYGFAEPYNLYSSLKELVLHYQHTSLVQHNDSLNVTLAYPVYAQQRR
Chain of PI3K p110 beta/p85 alpha (P42338 whole entry): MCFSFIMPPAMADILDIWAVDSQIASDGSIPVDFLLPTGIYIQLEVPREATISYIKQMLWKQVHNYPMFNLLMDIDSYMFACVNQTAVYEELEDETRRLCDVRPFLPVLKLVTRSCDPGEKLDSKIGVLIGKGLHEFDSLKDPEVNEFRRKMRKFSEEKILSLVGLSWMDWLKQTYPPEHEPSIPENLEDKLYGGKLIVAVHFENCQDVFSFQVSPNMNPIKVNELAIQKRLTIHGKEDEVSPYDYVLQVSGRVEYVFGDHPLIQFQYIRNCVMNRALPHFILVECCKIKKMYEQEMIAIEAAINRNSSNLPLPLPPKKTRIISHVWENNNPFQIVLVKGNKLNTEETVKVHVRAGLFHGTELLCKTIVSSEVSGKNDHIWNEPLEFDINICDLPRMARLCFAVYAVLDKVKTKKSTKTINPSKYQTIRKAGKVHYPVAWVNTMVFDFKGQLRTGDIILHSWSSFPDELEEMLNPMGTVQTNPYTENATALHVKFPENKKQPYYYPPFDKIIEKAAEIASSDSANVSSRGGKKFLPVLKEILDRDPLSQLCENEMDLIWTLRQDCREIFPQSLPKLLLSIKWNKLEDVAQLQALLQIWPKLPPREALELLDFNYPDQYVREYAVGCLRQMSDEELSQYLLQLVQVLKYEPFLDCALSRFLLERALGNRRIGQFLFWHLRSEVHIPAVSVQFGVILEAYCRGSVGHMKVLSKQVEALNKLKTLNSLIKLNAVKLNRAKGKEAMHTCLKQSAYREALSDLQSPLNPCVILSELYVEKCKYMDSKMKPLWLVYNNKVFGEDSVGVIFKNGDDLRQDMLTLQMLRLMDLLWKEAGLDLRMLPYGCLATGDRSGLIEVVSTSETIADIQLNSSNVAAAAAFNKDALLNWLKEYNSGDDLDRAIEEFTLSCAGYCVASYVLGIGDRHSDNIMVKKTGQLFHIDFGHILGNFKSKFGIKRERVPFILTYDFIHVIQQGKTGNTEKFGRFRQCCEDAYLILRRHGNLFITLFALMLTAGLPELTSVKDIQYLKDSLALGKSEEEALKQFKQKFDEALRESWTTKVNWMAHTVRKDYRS

[4] = Antiproliferative activity against Balb/c mouse splenic B cells preincubated for 30 mins followed by LPS or F(ab')2 donkey anti-mouse IgM and recombinant mouse IL4 stimulation measured after 72 hrs by Alamar Blue reduction assay; assay type: functional, cell-based
[5] = target: PI3-kinase p110-alpha/p85-alpha (Homo sapiens, UniProt P42336); assay: Inhibition of N-terminal His6-tagged recombinant full-length human p110alpha/untagged recombinant full length human p85alpha expressed in baculovirus infected Sf21 cells using phosphatidylinositol as substrate in presence of gamma-32P-ATP after 5 mins by thin layer chromatographic method
Chain of PI3-kinase p110-alpha/p85-alpha (P27986 whole entry): as the sequence (P27986 whole entry) above
Chain of PI3-kinase p110-alpha/p85-alpha (P42336 whole entry): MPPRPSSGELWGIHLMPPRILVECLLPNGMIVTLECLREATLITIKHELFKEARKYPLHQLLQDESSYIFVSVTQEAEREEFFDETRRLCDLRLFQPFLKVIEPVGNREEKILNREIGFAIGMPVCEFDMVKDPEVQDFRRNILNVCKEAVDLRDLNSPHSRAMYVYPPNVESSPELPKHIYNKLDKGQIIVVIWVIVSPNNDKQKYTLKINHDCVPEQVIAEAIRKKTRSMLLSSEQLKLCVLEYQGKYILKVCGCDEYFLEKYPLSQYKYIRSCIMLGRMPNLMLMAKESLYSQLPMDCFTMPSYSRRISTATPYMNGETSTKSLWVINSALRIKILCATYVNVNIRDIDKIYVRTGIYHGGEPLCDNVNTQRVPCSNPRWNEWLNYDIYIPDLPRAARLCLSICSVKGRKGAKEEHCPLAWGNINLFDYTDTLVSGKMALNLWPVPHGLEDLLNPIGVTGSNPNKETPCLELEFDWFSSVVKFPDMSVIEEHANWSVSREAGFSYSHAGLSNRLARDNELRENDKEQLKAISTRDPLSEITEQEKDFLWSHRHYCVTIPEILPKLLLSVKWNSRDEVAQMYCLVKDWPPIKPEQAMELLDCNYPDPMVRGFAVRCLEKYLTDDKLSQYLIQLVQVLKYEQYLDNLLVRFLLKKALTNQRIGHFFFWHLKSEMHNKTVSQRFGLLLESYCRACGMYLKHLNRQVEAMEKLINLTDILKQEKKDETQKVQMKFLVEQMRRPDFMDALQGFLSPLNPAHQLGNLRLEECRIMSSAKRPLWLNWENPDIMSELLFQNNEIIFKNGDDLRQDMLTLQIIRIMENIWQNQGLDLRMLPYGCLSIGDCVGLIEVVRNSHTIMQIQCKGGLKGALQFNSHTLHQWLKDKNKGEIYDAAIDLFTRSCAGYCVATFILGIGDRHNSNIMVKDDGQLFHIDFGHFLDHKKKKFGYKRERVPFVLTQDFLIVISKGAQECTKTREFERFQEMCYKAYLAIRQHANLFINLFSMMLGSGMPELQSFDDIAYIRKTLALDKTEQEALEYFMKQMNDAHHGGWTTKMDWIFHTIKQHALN

Chain of PI3-kinase p110-delta/p85-alpha (P27986 whole entry, canonical isoform): as the sequence (P27986 whole entry) above
Chain of PI3-kinase p110-delta/p85-alpha (O00329 whole entry, canonical isoform): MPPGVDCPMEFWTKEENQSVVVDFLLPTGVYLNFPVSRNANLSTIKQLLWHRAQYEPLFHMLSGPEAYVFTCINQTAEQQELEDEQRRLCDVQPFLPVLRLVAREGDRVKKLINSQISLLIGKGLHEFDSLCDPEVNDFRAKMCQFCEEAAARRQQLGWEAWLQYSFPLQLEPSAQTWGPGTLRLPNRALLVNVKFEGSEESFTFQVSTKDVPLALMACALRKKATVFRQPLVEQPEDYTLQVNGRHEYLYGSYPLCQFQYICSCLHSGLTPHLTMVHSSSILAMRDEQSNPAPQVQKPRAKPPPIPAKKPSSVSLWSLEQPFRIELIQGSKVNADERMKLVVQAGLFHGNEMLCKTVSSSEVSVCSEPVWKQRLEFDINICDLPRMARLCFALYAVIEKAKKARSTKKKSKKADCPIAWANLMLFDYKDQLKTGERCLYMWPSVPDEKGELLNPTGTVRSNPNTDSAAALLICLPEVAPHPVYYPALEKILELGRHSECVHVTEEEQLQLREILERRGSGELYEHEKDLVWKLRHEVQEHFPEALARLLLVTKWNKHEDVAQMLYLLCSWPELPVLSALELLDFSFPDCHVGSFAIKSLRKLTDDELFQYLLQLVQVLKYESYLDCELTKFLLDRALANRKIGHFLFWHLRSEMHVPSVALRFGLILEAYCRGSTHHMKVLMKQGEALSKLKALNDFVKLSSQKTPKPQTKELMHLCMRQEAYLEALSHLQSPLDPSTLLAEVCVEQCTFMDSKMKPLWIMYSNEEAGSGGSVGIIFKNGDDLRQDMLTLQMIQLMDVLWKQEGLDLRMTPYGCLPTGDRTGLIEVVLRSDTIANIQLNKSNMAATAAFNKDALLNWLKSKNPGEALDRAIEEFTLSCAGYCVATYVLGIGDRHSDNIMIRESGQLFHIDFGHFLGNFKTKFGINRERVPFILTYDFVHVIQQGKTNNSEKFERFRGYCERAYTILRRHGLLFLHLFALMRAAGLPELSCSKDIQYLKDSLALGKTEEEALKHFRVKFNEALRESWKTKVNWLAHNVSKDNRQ

| IC50 [1] | IC50 [2] | IC50 [3] | IC50 [5] | SMILES | EC50 [4] |
| --- | --- | --- | --- | --- | --- |
| < 100 nM | < 100 nM | < 100 nM |  | CC(=O)Nc1nc2cc(-c3nn(Cc4cc5cccc(C)c5c(=O)n4-c4ccccc4)c4ncnc(N)c34)ccc2o1 | < 100 nM |
| < 10000 nM | > 10000 nM | > 10000 nM | > 10 µM | Cc1ccccc1-n1c(Cn2nc(CCC(=O)N3CCOCC3)c3c(N)ncnc32)cc2cccc(C)c2c1=O |  |
| < 100 nM | < 1000 nM |  | > 10 µM | Cc1ccccc1-n1c(Cn2nc(Cl)c3c(N)ncnc32)cc2cccc(C)c2c1=O | < 1000 nM |
| < 100 nM | < 100 nM | < 100 nM |  | Cc1cccc2cc([C@H](C)Nc3ncnc4[nH]cnc34)n(C3CC3)c(=O)c12 | < 100 nM |
| < 100 nM | < 100 nM | < 100 nM |  | Cc1cccc2cc([C@H](C)Nc3ncnc4[nH]cc(Br)c34)n(-c3ccccc3)c(=O)c12 | < 100 nM |
| < 100 nM | < 1000 nM | < 10000 nM | > 10 µM | Cc1cccc2cc(Cn3nc(-c4cccc(O)c4)c4c(N)ncnc43)n(C3CCCC3)c(=O)c12 |  |
| < 100 nM | < 100 nM | < 100 nM |  | Cc1cccc2cc([C@H](C)Nc3ncnc4[nH]nc(C(N)=O)c34)n(C3CC3)c(=O)c12 |  |
| < 100 nM | < 100 nM | < 100 nM |  | Cc1cccc2cc([C@H](C)Nc3ncnc4[nH]cc(F)c34)n(-c3ccccc3)c(=O)c12 | < 100 nM |
| 100 to 10000 nM | > 10000 nM | > 10000 nM | > 10 µM | Cc1cccc2cc(Cn3nc(I)c4c(N)ncnc43)n(C(C)C)c(=O)c12 |  |
| < 100 nM | < 100 nM | < 100 nM |  | Cc1cccc2cc([C@H](C)Nc3ncnc4[nH]cc(C(N)=O)c34)n(C3CC3)c(=O)c12 |  |
| < 1000 nM | > 10000 nM | > 10000 nM | > 10 µM | Cc1ccccc1-n1c(Cn2nc(/C=C/C(=O)N3CCOCC3)c3c(N)ncnc32)cc2cccc(C)c2c1=O |  |
| < 100 nM | < 100 nM | < 100 nM |  | Cc1cccc2cc([C@H](C)Nc3ncnc4[nH]cc(C#N)c34)n(-c3ccccc3)c(=O)c12 |  |
| < 1000 nM | < 10000 nM | > 10000 nM | > 10 µM | COc1cc(F)cc(-c2nn(Cc3cc4cccc(C)c4c(=O)n3-c3ccccc3C)c3ncnc(N)c23)c1 |  |
| < 100 nM | < 100 nM | < 100 nM |  | Cc1cccc2cc([C@H](C)Nc3ncnc4[nH]cc(C(N)=O)c34)n(-c3ccccc3)c(=O)c12 |  |
| < 1000 nM | < 10000 nM | > 10000 nM | > 10 µM | C=Cc1nn(Cc2cc3cccc(C)c3c(=O)n2-c2ccccc2F)c2ncnc(N)c12 |  |
| < 1000 nM | < 10000 nM | > 10000 nM | > 10 µM | Nc1ncnc2c1c(-c1cn[nH]c1)nn2Cc1cc2cccc(F)c2c(=O)n1-c1ccccc1F |  |
| < 1000 nM | < 10000 nM | > 10000 nM | > 10 µM | Cc1cccc2cc(Cn3nc(-c4ccn[nH]4)c4c(N)ncnc43)n(-c3ccccc3F)c(=O)c12 |  |
| < 100 nM | < 100 nM | < 100 nM |  | Cc1cccc2cc([C@H](C)Nc3ncnc4[nH]cc(C#N)c34)n(C3CC3)c(=O)c12 | < 100 nM |
| < 100 nM | < 100 nM |  |  | Cc1cccc2cc(Cn3nc(-c4ccc5oc(N)nc5c4)c4c(N)ncnc43)n(C3CCC3)c(=O)c12 | < 100 nM |
| < 100 nM | < 100 nM |  |  | Cc1cccc2cc([C@H](C)Nc3ncnc4[nH]cnc34)n(-c3ccccc3)c(=O)c12 | < 100 nM |
| < 100 nM | < 100 nM | < 100 nM |  | Cc1cccc2cc([C@H](C)Nc3ncnc4[nH]cc(F)c34)n(C3CC3)c(=O)c12 | < 100 nM |
| < 100 nM | < 100 nM | < 100 nM |  | Cc1cccc2cc([C@H](C)Nc3ncnc4[nH]cc(Br)c34)n(C3CC3)c(=O)c12 |  |
| < 100 nM | < 100 nM | < 100 nM |  | Cc1cccc2cc([C@H](C)Nc3ncnc4[nH]ccc34)n(C3CC3)c(=O)c12 |  |
| < 10000 nM | < 1000 nM | > 10000 nM | > 10 µM | Cc1ccccc1-n1c(Cn2nc(-c3cnn(C)c3)c3c(N)ncnc32)cc2cccc(C)c2c1=O |  |
| < 100 nM | < 100 nM | < 100 nM |  | C[C@H](Nc1ncnc2[nH]cnc12)c1cc2cccc(Cl)c2c(=O)n1C1CC1 | < 100 nM |
| < 100 nM | < 100 nM |  |  | Cc1ccccc1-n1c(Cn2nc(-c3ccc4nc(N)[nH]c4c3)c3c(N)ncnc32)cc2cccc(C)c2c1=O | < 100 nM |
| < 1000 nM | < 1000 nM |  | > 10 µM | COc1ccc(-c2nn(Cc3cc4cccc(C)c4c(=O)n3-c3ccccc3F)c3ncnc(N)c23)cc1OC | < 1000 nM |

| IC50 [1] | IC50 [2] | IC50 [3] | IC50 [5] | SMILES | EC50 [4] |
| --- | --- | --- | --- | --- | --- |
| < 100 nM | < 100 nM |  |  | Cc1ccccc1-n1c(Cn2nc(CF)c3c(N)ncnc32)cc2cccc(C)c2c1=O | < 100 nM |
| < 10000 nM | < 10000 nM | > 10000 nM | > 10 µM | CCN(Cc1cc2cccc(C)c2c(=O)n1-c1ccccc1C)c1ncnc2[nH]cnc12 |  |
| < 100 nM | < 1000 nM | > 10000 nM |  | Cc1cccc2cc(Cn3nc(I)c4c(N)ncnc43)n(-c3ccccc3Cl)c(=O)c12 | < 1000 nM |
| < 100 nM | < 100 nM |  |  | Cc1cccc2cc(Cn3nc(-c4ccc5nc(N)[nH]c5c4)c4c(N)ncnc43)n(-c3ccccc3)c(=O)c12 | < 100 nM |
| < 100 nM | < 100 nM |  |  | CC(=O)Nc1nc2ccc(-c3nn(Cc4cc5cccc(C)c5c(=O)n4-c4ccccc4C)c4ncnc(N)c34)cc2[nH]1 | < 100 nM |
| < 100 nM | < 100 nM |  |  | Cc1ccccc1-n1c(Cn2nc(-c3ccc4nc(N)oc4c3)c3c(N)ncnc32)cc2cccc(C)c2c1=O | < 100 nM |
| < 100 nM | < 1000 nM | > 10000 nM |  | Cc1ccncc1-n1c(Cn2nc(I)c3c(N)ncnc32)cc2cccc(C)c2c1=O | < 1000 nM |
| < 100 nM | < 100 nM |  |  | Cc1ccccc1-n1c(Cn2nc(-c3nn[nH]n3)c3c(N)ncnc32)cc2cccc(C)c2c1=O | < 10000 nM |
| < 1000 nM | > 10000 nM |  | > 10 µM | Cc1cccnc1-n1c(Cn2nc(Cl)c3c(N)ncnc32)cc2cccc(C)c2c1=O | < 1000 nM |
|  | < 10000 nM | > 10000 nM | > 10 µM | Cc1ccccc1-n1c(CN(C)c2ncnc3[nH]cnc23)cc2cccc(C)c2c1=O |  |
| < 100 nM | < 100 nM |  | < 100 µM | Cc1cccc2cc(Cn3nc(-c4ccc5oc(N)nc5c4)c4c(N)ncnc43)n(C3CC3)c(=O)c12 | < 100 nM |
| < 100 nM | < 1000 nM |  | > 10 µM | Cc1ccccc1-n1c(Cn2nc(-c3cccc(O)c3)c3c(N)ncnc32)cc2ccccc2c1=O | < 1000 nM |
| < 100 nM | < 100 nM | < 100 nM |  | Cc1cccc2cc([C@H](C)Nc3ncnc4[nH]nc(C#N)c34)n(-c3ccccc3)c(=O)c12 | < 100 nM |
| < 100 nM | < 100 nM |  |  | Cc1cccc2cc(Cn3nc(-c4ccc5oc(N)nc5c4)c4c(N)ncnc43)n(-c3ccccc3)c(=O)c12 | < 100 nM |
| < 100 nM | < 100 nM |  |  | CC(=O)Nc1nc2cc(-c3nn(Cc4cc5cccc(C)c5c(=O)n4-c4ccccc4C)c4ncnc(N)c34)ccc2o1 | < 100 nM |
| < 100 nM | < 100 nM |  |  | Cc1cccc2cc(C(C)Nc3ncnc4[nH]cnc34)n(C3CCCC3)c(=O)c12 (stereo not drawn) | < 100 nM |
| < 100 nM | < 1000 nM |  |  | Cc1cccc2cc(Cn3nc(I)c4c(N)ncnc43)n(-c3ccccc3F)c(=O)c12 | < 10000 nM |
| < 100 nM | < 100 nM |  | < 100 µM | Cc1cccc2cc(Cn3nc(-c4ccc5nc(N)sc5c4)c4c(N)ncnc43)n(-c3ccccc3)c(=O)c12 | < 100 nM |
| < 1000 nM | < 1000 nM |  | > 10 µM | Cc1ccccc1-n1c(Cn2nc(-c3ccc(Cl)cc3)c3c(N)ncnc32)cc2cccc(C)c2c1=O | < 10000 nM |
| < 10000 nM | > 10000 nM |  |  | Cc1cccc2cc(Cn3cnc4c(N)ncnc43)n(-c3ccccc3F)c(=O)c12 | < 10000 nM |
| < 100 nM | < 100 nM |  |  | Cc1ccccc1-n1c(Cn2nc(-c3ccc4sc(N)nc4c3)c3c(N)ncnc32)cc2cccc(C)c2c1=O | < 100 nM |
| < 100 nM | < 100 nM | < 100 nM |  | Cc1cccc2cc([C@H](C)Nc3ncnc4[nH]cc(Cl)c34)n(-c3ccccc3)c(=O)c12 |  |
| < 1000 nM | < 10000 nM |  | > 10 µM | Cc1cccnc1-n1c(Cn2nc(Br)c3c(N)ncnc32)cc2cccc(C)c2c1=O | < 100 nM |
| < 100 nM | < 100 nM |  |  | Cc1cccc2cc([C@H](C)Nc3nc(N)ncc3Cl)n(-c3ccccc3)c(=O)c12 | < 100 nM |
| < 100 nM | < 100 nM |  |  | Cc1cccc2cc([C@H](C)Nc3nc(Cl)nc4[nH]cnc34)n(-c3ccccc3)c(=O)c12 | < 100 nM |
| < 100 nM | < 100 nM | < 100 nM |  | Cc1cccc2cc([C@H](C)Nc3ncnc4[nH]nc(C(N)=O)c34)n(-c3ccccc3)c(=O)c12 | < 100 nM |
